Patent US8658373B2, “Method of screening for an agent for treating arthritis and promoting growth of articular chondrocytes” (Kazuwa Nakao, priority 2004, dated 2014)
“Also recorded” adds a separate entry of the source. Bridges are numbered along the chain shown (N, C = ends). Where no end group is shown, it is not given here.

How the values were obtained:
[1] = system: collagenase OA mouse model (right knee joint); assay: Combined effect of NSAID and CNP in collagenase OA model; type: in vivo; conditions: 7 days
Protocol: An osmotic […]) containing the solutions below was transplanted subcutaneously in the back of a 9-week-old male C57BL/6 J strain mouse. • Solvent: Distilled water containing 5% dextrose (Junsei Chemical Co., Ltd., Japan), 10% mannose (Nacalai Tesque Inc., Japan) and 5 mmol/L hydrochloric acid (Wako Pure Chemical Industries, Japan). • 1 μg/mL solution (6 ng/day) of CNP-22 (Calbiochem Novabiochem). In addition, to examine the effect of the NSAID indomethacin (Sigma) when used alone and in combination with the CNP, an indomethacin suspension in 0.2% carboxymethyl cellulose (Nacalai Tesque Inc., Japan) was administered orally in a forced manner at 1 mg/kg once a day for 4 successive days from the date of pump transplantation described above. On the date of pump transplantation and the following day, 6 μL of 0.15% type II collagenase (Sigma) and 6 μL of 1.5% type II collagenase solutions, respectively, were injected into the right knee joint, the breadth of both the right and left knee joints was measured daily with a slide caliper (Mitutoyo Corp., Japan) for 7 days after injection, and the difference between the right and left knee joints was calculated. This difference represented the swelling of knee joints, and the AUC was compared between the solvent control and CNP groups by the Student's t-test (SAS ver. 6.12).

[2] = system: mouse bone marrow macrophages (BMM); conditions: stimulation of mouse BMM with LPS; cited from earlier work
[3] = system: blood thromboxane B2 (TXB2) level; conditions: LPS administration in mice; cited from earlier work
[4] = system: collagenase OA mouse model (right knee joint); assay: Therapeutic effect of CNP infusion on collagenase osteoarthritic mouse model; type: in vivo; conditions: for AUC of knee joint swelling (difference between right and left knee joint breadth) vs solvent control: 1.5% collagenase, 28 days; for swelling of the right knee joint vs solvent control: 6 days following 1.5% collagenase
Protocol: (§1) An osmotic pump (2004 model, Durect) containing the solutions below was transplanted subcutaneously in the back of a 9-week-old male C57BL/6 J strain mouse. • Solvent: Distilled water containing 5% dextrose (Junsei Chemical Co., Ltd., Japan), 10% mannose (Nacalai Tesque Inc., Japan) and 5 mmol/L hydrochloric acid (Wako Pure Chemical Industries, Japan). • 10 μg/mL solution (60 ng/day) of CNP-22 (Calbiochem Novabiochem). • 100 μg/mL solution (600 ng/day) of CNP-22 (Calbiochem Novabiochem.).
Six days after transplantation, 6 μL of 1.5% type II collagenase (Sigma) solution was injected into the right knee joint, the breadth of both the right and left knee joints was measured on time with a slide caliper (Mitutoyo Corp., Japan) for 28 days after injection, and the difference between the right and left knee joints was calculated. This difference represented the swelling of knee joints, and the AUC was compared between the solvent control and CNP groups by the Student's t-test (SAS ver. 6.12). […] Hematoxylin-eosin-stained and safranin O-stained samples were prepared according to the method as described in Example 5, and analyzed histopathologically.

[5] = system: surgical OA mouse model (right knee joint); assay: Therapeutic effect of CNP infusion on surgical OA mouse model; type: in vivo; conditions: 4, 8 and 11 days postoperatively
Protocol: as §1, with “mouse (CLEA Japan, Japan).” for “mouse.”, “[…]” for “μg/mL”, “Novabiochem).” for “Novabiochem.).”
On the following day of transplantation, the mouse was anesthetized with ether and subjected to the surgical procedures of anterocrucial ligament excision, medial collateral ligament excision and medial meniscus total resection in the right knee joint to induce osteoarthritis. The breadth of both the right and left knee joints was measured on time with a slide caliper (Mitutoyo Corp.) for 11 days after administration, and the difference between the right and left knee joints was calculated. This difference represented the swelling of knee joints, and the AUC was compared between the solvent control and CNP groups by the Student's t-test (SAS Preclinical Package, SAS Institute Japan, Japan).

[6] = system: adjuvant arthritis rat model; assay: Effect of CNPs on adjuvant arthritis rat model; type: in vivo; conditions: CNP-22 60 ng/day; for arthritis score of the limb ends vs solvent control: osmotic pump subcutaneous; for body weight vs solvent control: days 7 and 10 from antigen sensitization
[7] = system: collagen arthritis rat model; assay: Effect of CNPs on collagen arthritis rat model; type: in vivo; conditions: CNP-22 6 μg/day, days 21, 24 and 28 from antigen sensitization
Protocol: An osmotic pump (2004 model, Durect) containing the solutions below was transplanted subcutaneously in the back of a 10-week-old female DA/Slc strain rat (Japan SLC, Inc., Japan). • Solvent: Distilled water containing 5% dextrose (Junsei Chemical Co., Ltd., Japan), 10% mannose (Nacalai Tesque Inc., Japan) and 5 mmol/L hydrochloric acid (Wako Pure Chemical Industries, Japan). • 1 mg/mL solution (6 μg/day) of CNP-22 (Calbiochem Novabiochem).
Immediately after transplantation, bovine type II collagen (Collagen Technology Training Co., Japan) was dissolved in 0.1 mol/L aqueous acetic acid so as to make 1.5 mg/mL and suspended in an equal volume of Freund Incomplete Adjuvant (DIFCO LABORATORIES), and 400 μL of the suspension was inoculated into the skin on the back of a rat. Changes in body weight were also measured on a daily basis. In addition, changes in body weight were also measured in a normal group receiving neither pump transplantation nor inoculation.

[8] = CNP-22 60 ng/day continuous subcutaneous
[9] = CNP-22 600 ng/day continuous subcutaneous

Compound: COc1ccc2c(c1)c(CC(=O)O)c(C)n2C(=O)c1ccc(Cl)cc1 [indomethacin]
- swelling of knee joints (AUC) vs solvent control ([1]; indomethacin 1 mg/kg oral once a day for 4 days, alone): not inhibitory; also recorded: did not

Compound: ANP: atrial sodium peptide, a natriuretic peptide acting via NPR-A (SLRRSSCFGGRMDRIGAQSGLGCNSFRY; ends and bridges not checked; cysteine pairing not given here; UniProt P01160 124-151, looked up) [reference compound]
- inhibitory effect on the enhancement of PGE2 production [2]: up to 70%
- effect on LPS-increased blood TXB2 level [3]: inhibitory effect

Compound: Gly Leu Ser Lys Gly Cys Phe Gly Leu Lys Leu Asp Arg Ile Gly Ser Met Ser Gly Leu Gly Cys (GLSKGCFGLKLDRIGSMSGLGC; disulfide 6-22; listed as Homo sapiens) [CNP-22, CNP-22 (Calbiochem Novabiochem) used in the tests]
- synovial cell growth, granulation and inflammatory cell infiltration in the synovial membrane (histopathology) ([4]; CNP group vs solvent control, collagenase-induced): remarkably reduced
- degeneration of the articular cartilage ([4]; CNP group, osmotic pump infusion): significantly reduced
- AUC of knee joint swelling (difference between right and left knee joint breadth) vs solvent control ([4]; CNP-22 60 ng/day continuous subcutaneous (osmotic pump)): significantly lower
- swelling of the right knee joint vs solvent control [4, 8]: significantly inhibited
- AUC of knee joint swelling (difference between right and left knee joint breadth) vs solvent control ([4]; CNP-22 600 ng/day continuous subcutaneous (osmotic pump)): significantly lower
- swelling of the right knee joint vs solvent control [4, 9]: significantly inhibited
- AUC of knee joint swelling vs solvent control [5, 8]: significantly lower; also recorded: significantly inhibited
- AUC of knee joint swelling vs solvent control [5, 9]: significantly lower; also recorded: significantly inhibited
- swelling of knee joints (AUC) vs solvent control ([1]; CNP-22 6 ng/day continuous subcutaneous alone): significantly inhibited
- arthritis score of the limb ends vs solvent control [6]: lower
- arthritis score of the limb ends vs solvent control ([6]; listed as CNP): somewhat lower
- body weight vs solvent control [6]: significantly heavy
- body weight vs solvent control ([6]; listed as CNP): increased significantly
- body weight (body weight loss) vs solvent control [7]: significantly heavy
- body weight (body weight loss) vs solvent control ([7]; listed as CNP): significantly smaller
- inhibitory effect on the enhancement of PGE2 production [2]: up to 20%
